We go through 10 compounds from patent US11447479B2, “Compounds active towards nuclear receptors” (NUEVOLUTION A/S, priority 2019, dated 2022).

The structures appear in SMILES notation.

One experiment deals with plasma IL-17A. As to the kind of experiment: In vivo IL-17A induction in anti-CD3 model in mice. The settings on record: oral gavage twice daily day 0 to day 3, plasma IL-17A by ELISA, C57BL/6JRj mice. As for the experimental part:
In Vivo IL-17A Induction in Anti-CD3 Model in Mice
Male C57BL/6JRj mice (7 week old) were purchased from Janvier Labs and housed at the animal facilities of Almirall throughout the study. Animals were allowed to condition for 5 days in their new environment at 22° C.±2° C., 55%±10% relative humidity and 12 h:12 h light:dark cycles. Animals were housed in polycarbonate cages, with free access to water and non-purified stock diet (2014 Teklad Global 14% Protein Rodent Maintenance Diet, Envigo) during the full course of the studies. Care of animals was undertaken in compliance with the European Committee Directive 2010/63/EU, and the Catalan and Spanish law. […]
Plasma levels of IL-17A were measured by ELISA (R&D Systems) according to the manufacturer's instruction. Results were calculated as the percentage of reduction of plasma IL-17A versus the difference between non-induced and anti-CD3e induced groups through the formula: inhibition=100*[1−[(x−mean non-induced)/(mean control vehicle−mean non-induced)]]. The IL-17A inhibition for each treatment can be expressed as the mean for each treatment group±S.E.M. Statistical analysis of data were conducted with one-way ANOVA followed by Dunnett's multiple comparisons test when appropriate. […]

The target in a further experiment is T1, RORγ (Homo sapiens, UniProt P51449).
T1 construct: Gal4 (galactose-responsive transcription factor); expressed in transfected cells; host or cells: HEK293
T1 sequence (P51449 269-508 limits assumed): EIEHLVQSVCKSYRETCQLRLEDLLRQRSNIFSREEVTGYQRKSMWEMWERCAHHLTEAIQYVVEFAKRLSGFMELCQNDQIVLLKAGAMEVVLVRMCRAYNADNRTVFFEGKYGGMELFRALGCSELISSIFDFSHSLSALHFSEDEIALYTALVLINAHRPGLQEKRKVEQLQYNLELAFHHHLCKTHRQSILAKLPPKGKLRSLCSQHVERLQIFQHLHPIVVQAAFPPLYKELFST
The experiment can be described thus: RORγ Reporter Assay (Gal4). Type of experiment: cell-based. As to conditions: HEK293 co-transfected with RORγ LBD-Gal4 and luciferase reporter, 24 h incubation, absolute IC50; read-out: IC50. As for the experimental part:
RORγ Reporter Assay (Gal4)
The HEK293 cell line is co-transfected transiently with two plasmids, one with the RORγ ligand-binding domain fused to galactose-responsive transcription factor (Gal4), and the other with the luciferase reporter gene and Gal binding sites (UAS). This construction allows to determine the RORγ activity in a cellular system through the measurement of luminescence.
A suspension of RORγ reporter cells was dispensed into plates and cultured 2 h at 37° C. and 5% CO2. Media formulation consisted in DMEM/F-12 medium (Gibco) supplemented with 10% heat inactivated FBS (Sigma-Aldrich), non-essential aminoacids (Sigma-Aldrich), 2 mM Glutamax (Gibco) and 100 U/mF penicillin (Sigma-Aldrich). Dose-response curves with compounds were prepared in 100% DMSO and further diluted […] in culture medium. Compound solutions were added to the plate containing cells (final DMSO concentration of 0.1%) and incubated for 24 h at 37° C. and 5% CO2. Luciferase detection reagent was added to each well, and relative light units […] were quantified from each assay well using a plate reading luminometer.
Values of average RFU±S.D. were computed for all treatment sets, followed by the calculations of percent-reduction of RORγ activity in response to respective test compound. The following formula was used: activity=100*[1−[x test compound/average vehicle]where the theoretical minimum reduction (0% reduction).

The subject of a further experiment is Th17 cells. The experiment can be described thus: Th17 assay (IL-17 in supernatants of differentiating human naive CD4+ T cells, ELISA). Type of experiment: cell-based. As to conditions: 168 h, Th17 differentiation for seven days with test compound, IL-17 levels in supernatants by ELISA. As to the method:
Th17 Assay (Another Suitable Assay)
The following modifications were made to the manufacturer's protocol: 1) Incubation with Biotin-Antibody Cocktail and Anti-Biotin MicroBeads was prolonged to 30 minutes, and 2) Cells were washed with 40 mL of Miltenyi buffer. Differentiation of Th17 cells in anti-CD3 (BD Pharmingen, 5 μg/ml) coated 96-well plates (400,000 cells/well, 160 μl RPMI1640+10% Fetal Bovine Serum) containing 5 μg/ml anti-CD28 (BD Pharmingen), 10 ng/ml IL-2 (R&D Systems), 2.5 ng/ml TGFβ-1 (R&D Systems), 20 ng/ml IL-1β (R&D Systems), 20 ng/ml IL-6 (R&D Systems), 30 ng/ml IL-23 (R&D Systems), 2.5 μg/ml anti-IL-4 (R&D Systems) and 1 μg/ml anti-IFNγ (R&D Systems) and with test compound during the entire differentiation (or vehicle, 0.1% DMSO for control). Test compounds were tested in triplicates, diluted 1000-fold in medium (final DMSO concentration is 0.1%). Incubated for seven days at 37° C., 5% CO2, 95% humidity, and 2-fluoro-4′-[[4-(4-pyridinylmethyl)-1-piperazinyl]methyl]-α,α-bis(trifluoromethyl)-[1,1′-biphenyl]-4-methanol (SR2211 Calbiochem, Cat. No. 557353) was used as positive control. As negative control, cells were differentiated into Th0 using 5 μg/ml anti-CD28 (BD Pharmingen), 10 ng/ml IL-2 (R&D Systems), 2 μg/ml anti-IL4 (R&D Systems) and 2 μg/ml anti-IFNγ (R&D Systems) are negative control. IL-17 levels in supernatants were measured with ELISA (R&D Systems).

The subject of experiment [1] is Collagen-induced arthritis. The experiment can be described thus: Collagen-Induced Arthritis (CIA) study. Type of experiment: in vivo. As to conditions: 10 mpk po bid, male DBA/1J mice. As for the experimental part: Collagen-Induced Arthritis (CIA) Study Collagen-induced arthritis is an animal model of rheumatoid arthritis used to evaluate the efficacy of test compounds. CIA was induced at Washington Biotechnology Inc. (Baltimore) in male DBA/1J mice (Jackson Laboratories) by subcutaneous injection at the base of the tail with 50 μl of a bovine collagen/complete Freund's adjuvant emulsion. After 21 days, the mice were further boosted by a further subcutaneous injection of 50 μl of a collagen/incomplete Freund's adjuvant emulsion. For treatment, compound or vehicle (2% DMSO, 10% HP—β-CD in MilliQ water) was given orally twice daily at various doses selected from 3, 10, 30 mg/kg, beginning at the day of CIA induction (Prophylactic setting), or after disease initiation (at day 27, therapeutic setting). Treatment lasted until day 41, and the animals were scored three times weekly. Each paw was scored and the sum of all four scores was recorded as the Arthritic Index (AI). The maximum possible AI was 16. 0=no visible effects of arthritis; 1=edema and/or erythema of one digit; 2=edema and/or erythema of 2 joints; 3=edema and/or erythema of more than 2 joints; 4=severe arthritis of the entire paw and digits including limb deformation and ankylosis of the joint. […] At 10 mpk po bid, H6-13-2 Arthritis Index (AI) decreased with 83% of the effect of the mouse aIL-17A antibody. […]

Regarding `NC(=O)CN1CC[C@H](CNc2ncnc(N3CC(F)(F)C[C@@H]3c3ccc(C(F)(F)F)cc3)c2F)[C@@H](O)C1` (single isomer, unassigned) [Example H6-17-1, 2-((3R*,4R*)-4-(((6-((R)-4,4-difluoro-2-(4-(trifluoromethyl)phenyl)pyrrolidin-1-yl)-5-fluoropyrimidin-4-yl)amino)methyl)-3-hydroxypiperidin-1-yl)acetamide], the “Inhibition of IL-17A (%) at 3 mg/kg” value in the experiment with plasma IL-17A is 67%. For the same compound, on RORγ, the 50% inhibitory concentration (IC50) is 26 nM. Turning to `NC(=O)CN1CCC(CNc2ncnc(N3CCOC[C@@H]3c3ccc(C(F)(F)F)cc3)c2F)CC1` [Example H6-5, (S)-2-(4-(((5-fluoro-6-(3-(4-(trifluoromethyl)phenyl)morpholino)pyrimidin-4-yl)amino)methyl)piperidin-1-yl)acetamide], the values for the IC50 on RORγ and in the experiment with Th17 cells were 70 nM and 161 nM, respectively. As for `NC(=O)CN1CCC(CNc2ncnc(N3CCOC[C@@H]3c3ccc(C(F)(F)F)cn3)c2F)C(F)(F)C1` (single isomer, unassigned) [Example H6-11-2, 2-((R*)-3,3-difluoro-4-(((5-fluoro-6-((S)-3-(5-(trifluoromethyl)pyridin-2-yl)morpholino)pyrimidin-4-yl)amino)methyl)piperidin-1-yl)acetamide], the “Arthritis Index (AI) decrease as % of the effect of the mouse aIL-17A antibody” value in experiment [1] was determined as 61%. Moreover, the IC50 at RORγ is 66 nM; with Th17 cells it was 82 nM. The like results for `NC(=O)CN1CC[C@H](CNc2ncnc(N3CCOC[C@@H]3c3ccc(C(F)(F)F)cn3)c2F)[C@@H](F)C1` (single isomer, unassigned) [Example H6-13-2, 2-((3R*,4R*)-3-fluoro-4-(((5-fluoro-6-((S)-3-(5-(trifluoromethyl)pyridin-2-yl)morpholino)pyrimidin-4-yl)amino)methyl)piperidin-1-yl)acetamide] were, in that order, 83%, 54 nM and 93 nM. Regarding `NC(=O)CN1CCC(CNc2ncnc(N3CC(F)(F)C[C@@H]3c3ccc(C(F)(F)F)cc3)c2F)C(F)(F)C1` (single isomer, unassigned) [Example H6-15-1, 2-((R*)-4-(((6-((R)-4,4-difluoro-2-(4-(trifluoromethyl)phenyl)pyrrolidin-1-yl)-5-fluoropyrimidin-4-yl)amino)methyl)-3,3-difluoropiperidin-1-yl)acetamide], the 50% inhibitory concentration (IC50) at RORγ was found to be 9 nM. Still for that read-out and setting: in the case of `NC(=O)CN1CCC(CNc2ncnc(N3CCOC[C@@H]3c3ccc(C(F)(F)F)cc3)c2F)C(F)(F)C1` (single isomer, unassigned) [Example H6-9-1, 2-((R*)-3,3-difluoro-4-(((5-fluoro-6-((S)-3-(4-(trifluoromethyl)phenyl)morpholino)pyrimidin-4-yl)amino)methyl)piperidin-1-yl)acetamide] it was 100 nM; in that of `C[C@@H]1COC[C@H](c2ccc(C(F)(F)F)cc2)N1c1ncnc(NC[C@@H]2CCN(CC(N)=O)C[C@H]2O)c1F` (single isomer, unassigned) [Example H6-22-2], 60 nM. On the same count and under the same terms, in the case of `NC(=O)CN1CCC(CNc2ncnc(N3CCOC[C@@H]3c3ccc(OC(F)(F)F)cc3)c2F)CC1` [Example H6-23, (S)-2-(4-(((5-fluoro-6-(3-(4-(trifluoromethoxy)phenyl)morpholino)pyrimidin-4-yl)amino)methyl)piperidin-1-yl)acetamide] it was 190 nM; in that of `NC(=O)CN1CCC(CNc2ncnc(N3CCOC[C@@H]3c3ccc(C(F)(F)F)cc3)c2F)C(F)(F)C1` (single isomer, unassigned) [Example H6-9-2, 2-((R*)-3,3-difluoro-4-(((5-fluoro-6-((S)-3-(4-(trifluoromethyl)phenyl)morpholino)pyrimidin-4-yl)amino)methyl)piperidin-1-yl)acetamide], 18 nM. The same measure, in the same setting: in the case of `NC(=O)CN1CCC(CNc2ncnc(N3CC(F)(F)CC3c3ccc(C(F)(F)F)cc3)c2F)CC1` (stereo not shown) [Example H6-24, 2-(4-(((6-(4,4-difluoro-2-(4-(trifluoromethyl)phenyl)pyrrolidin-1-yl)-5-fluoropyrimidin-4-yl)amino)methyl)piperidin-1-yl)acetamide] it was 140 nM.
